Experimental data as given in ChEMBL document CHEMBL1134731, “1,3-Biarylureas as selective non-peptide antagonists of the orexin-1 receptor” (Bioorg Med Chem Lett, 2001).

What was measured:
[1] = biological target: T1, Orexin/Hypocretin receptor type 1 (Homo sapiens) (UniProt O43613); experiment: Binding affinity towards orexin receptor type 1.
T1 sequence (whole entry): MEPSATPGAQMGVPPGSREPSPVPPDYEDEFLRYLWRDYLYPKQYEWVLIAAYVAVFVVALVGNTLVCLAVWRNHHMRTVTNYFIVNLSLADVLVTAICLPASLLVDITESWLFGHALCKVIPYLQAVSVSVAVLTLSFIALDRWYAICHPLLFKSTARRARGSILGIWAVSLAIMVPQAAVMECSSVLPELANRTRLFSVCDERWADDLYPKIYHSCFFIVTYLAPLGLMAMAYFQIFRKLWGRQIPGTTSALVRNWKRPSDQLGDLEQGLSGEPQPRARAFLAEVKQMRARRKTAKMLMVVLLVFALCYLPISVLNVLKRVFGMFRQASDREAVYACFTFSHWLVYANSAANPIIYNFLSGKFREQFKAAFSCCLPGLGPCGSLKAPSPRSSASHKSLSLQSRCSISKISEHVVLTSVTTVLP

[2] = biological target: 5-hydroxytryptamine receptor 2B (Homo sapiens, UniProt P41595); experiment: Binding affinity against 5-hydroxytryptamine 2B receptor
5-hydroxytryptamine receptor 2B, sequence (P41595 whole entry): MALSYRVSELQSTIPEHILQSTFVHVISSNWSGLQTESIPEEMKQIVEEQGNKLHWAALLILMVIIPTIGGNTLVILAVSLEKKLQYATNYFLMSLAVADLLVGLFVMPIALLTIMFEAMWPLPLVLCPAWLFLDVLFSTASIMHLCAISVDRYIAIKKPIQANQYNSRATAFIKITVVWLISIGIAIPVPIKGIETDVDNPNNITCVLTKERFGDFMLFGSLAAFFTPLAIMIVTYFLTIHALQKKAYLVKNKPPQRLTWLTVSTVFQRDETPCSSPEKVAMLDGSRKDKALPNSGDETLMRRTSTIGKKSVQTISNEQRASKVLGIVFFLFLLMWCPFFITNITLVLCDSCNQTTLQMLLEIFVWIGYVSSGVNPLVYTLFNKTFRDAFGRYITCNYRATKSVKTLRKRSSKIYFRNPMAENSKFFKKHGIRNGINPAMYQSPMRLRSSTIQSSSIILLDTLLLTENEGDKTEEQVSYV

[3] = biological target: T2, 5-hydroxytryptamine receptor 2C (Homo sapiens, UniProt P28335); experiment: Binding affinity against 5-hydroxytryptamine 2C receptor
T2 sequence (P28335 whole entry): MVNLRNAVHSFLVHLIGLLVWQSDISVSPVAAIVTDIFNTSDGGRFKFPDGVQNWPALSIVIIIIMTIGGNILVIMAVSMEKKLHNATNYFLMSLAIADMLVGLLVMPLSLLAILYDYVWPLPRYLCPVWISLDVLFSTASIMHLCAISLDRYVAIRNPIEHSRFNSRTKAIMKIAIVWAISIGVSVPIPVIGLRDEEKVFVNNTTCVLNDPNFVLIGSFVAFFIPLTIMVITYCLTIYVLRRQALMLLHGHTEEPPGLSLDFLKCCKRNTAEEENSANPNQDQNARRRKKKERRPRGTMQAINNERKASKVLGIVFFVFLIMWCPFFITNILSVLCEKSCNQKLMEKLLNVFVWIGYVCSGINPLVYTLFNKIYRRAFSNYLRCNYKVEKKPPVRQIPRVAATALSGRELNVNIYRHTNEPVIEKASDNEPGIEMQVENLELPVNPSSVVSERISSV

[4] = Steady state concentration was evaluated; format: ADME
[5] = Compound was tested in vivo for steady state brain-blood ratio after intravenous infusion of 1.8 mg/kg/h free base drug for 12h.; format: functional
[6] = Half life was evaluated in vivo after intraperitoneal administration; details: ip
[7] = Brain level determined after 2 hr from ip bolus dosing of 10 mg/kg; format: functional; details: route intraperitoneal
[8] = Brain level determined after 4 hr from a bolus 10 mg/kg ip dosing; format: functional; details: route intraperitoneal
[9] = biological target: T3, Orexin receptor type 2 (Homo sapiens) (UniProt O43614)
T3 sequence (whole entry): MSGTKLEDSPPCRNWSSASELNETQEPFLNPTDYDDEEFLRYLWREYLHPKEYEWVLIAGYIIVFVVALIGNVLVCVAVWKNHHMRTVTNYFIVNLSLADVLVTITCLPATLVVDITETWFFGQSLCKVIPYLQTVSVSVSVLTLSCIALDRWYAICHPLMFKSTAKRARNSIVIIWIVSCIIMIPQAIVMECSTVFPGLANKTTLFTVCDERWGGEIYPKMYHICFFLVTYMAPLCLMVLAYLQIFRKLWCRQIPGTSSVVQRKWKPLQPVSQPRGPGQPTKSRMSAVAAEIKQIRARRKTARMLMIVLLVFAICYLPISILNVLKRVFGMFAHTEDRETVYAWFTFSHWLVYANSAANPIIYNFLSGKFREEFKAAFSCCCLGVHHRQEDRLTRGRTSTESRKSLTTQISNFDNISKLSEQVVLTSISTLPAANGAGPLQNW
Description: Compound was evaluated for its binding affinity towards Orexin receptor type 2

in vivo = details: eutheria, po

O=C(Nc1ccc2[nH]ccc2c1)Nc1ccnc2ccccc12
pKb [1]: 6.2

O=C(Nc1ccccc1)Nc1ccnc2ccccc12
pKb [1]: < 6.1

CN(C)c1cccc(NC(=O)Nc2ccnc3ccccc23)c1
pKb [1]: 6.1

CSc1ccc(NC(=O)Nc2ccnc3cccnc23)cc1
pKb [1]: 7.5

O=C(Nc1cccc(Cl)c1)Nc1ccnc2ccccc12
pKb [1]: 6.4

Cn1ccc2cc(NC(=O)Nc3ncnc4ccccc34)ccc21
pKb [1]: < 6.3

O=C(Nc1ccc2ncoc2c1)Nc1ccnc2ccccc12
pKb [1]: 7

O=C(Nc1ccc2ocnc2c1)Nc1ccnc2ccccc12
pKb [1]: < 6.2

Cn1ccc2cc(NC(=O)Nc3ccncc3)ccc21
pKb [1]: < 5

Nc1ccc(NC(=O)Nc2ccnc3ccccc23)cc1
pKb [1]: < 6.1

O=C(Nc1ccc2c(ccn2Cc2ccccc2)c1)Nc1ccnc2ccccc12
pKb [1]: < 6.1

CSc1ccc(NC(=O)Nc2ccnc3ccccc23)cc1
Ki [2]: 31.6 nM
Ki [3]: 31.6 nM
Css [4]: 1000 nM
pKb [1]: 7.9
Ratio [5]: 0.1

N#Cc1ccc(NC(=O)Nc2ccnc3ccccc23)cc1
pKb [1]: < 6.2

Cn1ccc2cc(NC(=O)Nc3ccnc4ccccc34)ccc21
Ki [2]: 2.51 nM
Ki [3]: 25.1 nM
pKb [1]: 7.5

O=C(Nc1ccc(N2CCCC2)cc1)Nc1ccnc2ccccc12
pKb [1]: 6.4

CN(C)c1ccc(NC(=O)Nc2ccnc3ccccc23)cc1Cl
pKb [1]: 7.4

COc1ccc(NC(=O)Nc2ccnc3ccccc23)cc1OC
pKb [1]: < 6.3

O=C(Nc1ccc2c(c1)OCCCO2)Nc1ccnc2ccccc12
pKb [1]: 7.4

CN(C)c1ccc(NC(=O)Nc2ccnc3ccccc23)cc1
Ki [2]: 79.4 nM
Ki [3]: 126 nM
Css [4]: 4200 nM
pKb [1]: 7.8
Ratio [5]: 0.06

Cc1nc2ccc(NC(=O)Nc3ccnc4ncccc34)cc2o1
pKb [1]: 6.5

COc1ccc(NC(=O)Nc2ccnc3ccccc23)cc1
pKb [1]: 6.8

COc1cccc(NC(=O)Nc2ccnc3ccccc23)c1
pKb [1]: 6.6

Cn1ccc2cc(NC(=O)Nc3cccc4ccccc34)ccc21
pKb [1]: < 6.3

Cc1cc2cc(NC(=O)Nc3ccnc4ccccc34)ccc2n1C
Ki [2]: 3.98 nM
Ki [3]: 79.4 nM

Cc1nc2ccc(NC(=O)Nc3ccnc4ccccc34)cc2o1
Ki [2]: 631 nM
Ki [3]: 631 nM
pKb [1]: 7.7

Cc1nc2ccc(NC(=O)Nc3ccnc4ccncc34)cc2o1
pKb [1]: 5.9

CN1CCc2cc(NC(=O)Nc3ccnc4ccccc34)ccc21
Ki [2]: 12.6 nM
Ki [3]: 50.1 nM
pKb [1]: 7.6

Cn1ccc2cc(NC(=O)Nc3ccnc4cccnc34)ccc21
pKb [1]: 7.3

Cc1nc2ccc(NC(=O)Nc3ccnc4cccnc34)cc2o1
Ki [2]: 3980 nM
Ki [3]: > 5010 nM
Css [4]: 490 nM
half-life [6]: 24 min
pKb [1]: 7.4
Brain level [7]: 3.8 µM
Brain level [8]: <30 nM
Ratio [5]: 0.4
pKb [9]: 5.7
bioavailability (in vivo): 10%

CCN(CC)c1ccc(NC(=O)Nc2ccnc3ccccc23)cc1
Ki [2]: 50.1 nM
Ki [3]: 31.6 nM
Css [4]: 700 nM
pKb [1]: 7.4
Ratio [5]: 0.16

COc1ccc(NC(=O)Nc2ccnc3ccccc23)cc1Cl
Ki [2]: 15.8 nM
Ki [3]: 50.1 nM
